Measured values from patent US9884849B2, “Fluorinated benzofuranyl-pyrimidine derivatives containing a sulfoximine group” (Bayer Pharma Aktiengesellschaft, priority 2014, dated 2018).
Like-named read-outs stand apart in the source and are kept apart here.

Experiments:
HeLa-MaTu-ADR cells = assay: Proliferation assay HeLa-MaTu-ADR (Method 3); format: cell-based, human; conditions: 4 days, crystal violet, read-out: Inhibition of HeLa-MaTu-ADR cell proliferation IC50
Protocol: (§1) Cultivated tumour cells (HeLa, human cervical tumour cells, ATCC CCL-2; NCI-H460, human non-small cell lung carcinoma cells, ATCC HTB-177; A2780, human ovarian carcinoma cells, ECACC #93112519; DU 145, hormone-independent human prostate carcinoma cells, ATCC HTB-81; HeLa-MaTu-ADR, multidrug-resistant human cervical carcinoma cells, EPO-GmbH Berlin; Caco-2, human colorectal carcinoma cells, ATCC HTB-37; B16F10, mouse melanoma cells, ATCC CRL-6475) were plated at a density of 5,000 cells/well (DU145, HeLa-MaTu-ADR), 3,000 cells/well (NCI-H460, HeLa), 2,500 cells/well (A2780), 1,500 cells/well (Caco-2), or 1,000 cells/well (B16F10) in a 96-well multititer plate in 200 μL of their respective growth medium supplemented 10% fetal calf serum. After 24 hours, the cells of one plate (zero-point plate) were stained with crystal violet (see below), while the medium of the other plates was replaced by fresh culture medium (200 μl), to which the test substances were added in various concentrations (0 μM, as well as in the range of 0.001-10 μM; the final concentration of the solvent dimethyl sulfoxide was 0.5%). The cells were incubated for 4 days in the presence of test substances. Cell proliferation was determined by staining the cells with crystal violet: the cells were fixed by adding 20 μl/measuring point of an 11% glutaric aldehyde solution for 15 minutes at room temperature. After three washing cycles of the fixed cells with water, the plates were dried at room temperature. The cells were stained by adding 100 μl/measuring point of a 0.1% crystal violet solution (pH 3.0). After three washing cycles of the stained cells with water, the plates were dried at room temperature. The dye was dissolved by adding 100 μl/measuring point of a 10% acetic acid solution. The extinction was determined by photometry at a wavelength of 595 nm. The change of cell number, in percent, was calculated by normalization of the measured values to the extinction values of the zero-point plate (=0%) and the extinction of the untreated (0 μm) cells (=100%). The IC50 values (inhibitory concentration at 50% of maximal effect) were determined by means of a 4 parameter fit.

A2780 cells = assay: Proliferation assay A2780 (Method 3); format: cell-based, human; conditions: A2780, 4 days, crystal violet, read-out: Inhibition of A2780 cell proliferation IC50
Protocol: as §1

HeLa cells = assay: Proliferation assay HeLa (Method 3); format: cell-based, human; conditions: 4 days, crystal violet, read-out: Inhibition of HeLa cell proliferation IC50
Protocol: as §1

[1] = Caco-2 permeation assay (Method 4); format: in vitro ADME; conditions: human, 2 μM test compound; for efflux ratio at 2 h, 2 μM: Caco-2, pH 7.2, read-out: Efflux ratio (Papp B-A/Papp A-B); for Papp A→B at 2 h, 2 μM / Papp B→A at 2 h, 2 μM: Caco-2, 2 h incubation, pH 7.2; for Papp A→B at 2 h, 2 μM: read-out: Papp A-B (Mari); for Papp B→A at 2 h, 2 μM: read-out: Papp B-A (Mari)
Protocol: 4. Caco-2 Permeation Assay:
Caco-2 cells (purchased from DSMZ Braunschweig, Germany) were seeded at a density of 4.5×10^4 cells per well on 24 well insert plates, 0.4 μm pore size, and grown for 15 days in DMEM medium supplemented with 10% fetal bovine serum, 1% GlutaMAX (100×, GIBCO), 100 U/mL penicillin, 100 μg/mL streptomycin (GIBCO) and 1% non essential amino acids (100×). Cells were maintained at 37° C. in a humified 5% CO2 atmosphere. Medium was changed every 2-3 day. Before running the permeation assay, the culture medium was replaced by a FCS-free hepes-carbonate transport buffer (pH 7.2). For assessment of monolayer integrity the transepithelial electrical resistance (TEER) was measured. Test compounds were predissolved in DMSO and added either to the apical or basolateral compartment in final concentration of 2 μM in transport buffer. Before and after 2 h incubation at 37° C. samples were taken from both compartments. Analysis of compound content was done after precipitation with methanol by LC/MS/MS analysis. Permeability (Papp) was calculated in the apical to basolateral (A→B) and basolateral to apical (B→A) directions. The apparent permeability was calculated using following equation: Papp=(Vr/Po)(1/S)(P2/t)
Where Vr is the volume of medium in the receiver chamber, Po is the measured peak area or height of the test drug in the donor chamber at t=o, S the surface area of the monolayer, P2 is the measured peak area of the test drug in the acceptor chamber after 2 h of incubation, and t is the incubation time. The efflux ratio basolateral (B) to apical (A) was calculated by dividing the Papp B-A by the Papp A-B. In addition the compound recovery was calculated.

Structure (SMILES)	IC50 (HeLa-MaTu-ADR cells; Homo sapiens, 96 h)	IC50 (A2780 cells; Homo sapiens, A2780, 96 h)	IC50 (HeLa cells; Homo sapiens, 96 h)	efflux ratio at 2 h, 2 μM [1]	Papp A→B at 2 h, 2 μM [1]	Papp B→A at 2 h, 2 μM [1]	IC50 (HeLa-MaTu-ADR cells)	IC50 (A2780 cells)	IC50 (HeLa cells)
CS(=N)(=O)Cc1cccc(Nc2ncc(F)c(-c3ccc(F)c4ccoc34)n2)c1 (racemic) [Example 4, (rac)-5-Fluoro-4-(4-fluoro-1-benzofuran-7-yl)-N-{3-[(S-methylsulfonimidoyl)-methyl]phenyl}-pyrimidin-2-amine]	143 nM	53 nM	297 nM	0.57	18.3 ×10⁻⁶ cm/s	10.4 ×10⁻⁶ cm/s			
CS(=N)(=O)Cc1cccc(Nc2ncc(F)c(-c3ccc(F)c4ccoc34)n2)c1 (single isomer, unassigned) [Example 6, 5-Fluoro-4-(4-fluoro-1-benzofuran-7-yl)-N-{3-[(S-methylsulfonimidoyl)-methyl]-phenyl}-pyrimidin-2-amine]				0.51	22.1 ×10⁻⁶ cm/s	11.3 ×10⁻⁶ cm/s	96 nM	38 nM	115 nM
